Results as given in US7332523B2, “TNP-470 polymer conjugates and use thereof” (Children's Medical Center Corporation, priority 2002, dated 2008).

Tests used:
[1] = test system: LLC; assay: Antitumor activity in C57BL/6J mice bearing s.c. LLC; conditions: 30 mg/kg q.o.d. (data not shown)
[2] = test system: murine, human and metastatic tumors; conditions: mice; mostly 30 mg/kg subcutaneously every other day; cited from earlier work
[3] = test system: liver regeneration; assay: Hepatectomy model (liver regeneration); assay type: in vivo, C57BL/6J mice
Description: Male C57BL/6J mice underwent a partial hepatectomy through a midline incision after general anesthesia with isoflourane^33. Free or conjugated TNP-470 (30 mg/kg) were given s.c. every other day for 8 days beginning on the day of surgery according to the scheme described in FIG. 4a. Alternatively, the doses given were 60 mg/kg the day of surgery and 4 days later or 120 mg/kg once on the day of the partial hepatectomy. The liver was harvested on the 8th day, weighed and analyzed by histology.

[4] = test system: chick aortic ring; assay: Chick aortic ring endothelial sprouting assay; assay type: cell-based
Description: Aortic arches were dissected from day-14 chick embryos, cut into cross-sectional fragments, and implanted in vitro in Matrigel using a modification of methods previously described (V. Muthukkaruppan, personal communication). When cultured in MCDB-131 medium supplemented with 5% fetal bovine serum, endothelial cells sprouted and vascular channel formation occurred within 24-48 hours.

[5] = at doses where antitumor activity has been seen; cited from earlier work
[6] = cited from earlier work
[7] = test system: A2058 human melanoma; assay: Antitumor activity in SCID mice bearing s.c. A2058 human melanoma; assay type: in vivo
Text: Each group consisted of 5 mice.

[8] = Early mouse development (body weight of newborn mice); conditions: injected into 7 and 17 day-old BALB/c mice
[9] = clinical pharmacokinetics, comparison value in words; cited from earlier work

Compound	weight loss [1]	inhibition of growth of human tumors [2]	inhibition of growth of metastatic tumors [2]	inhibition of growth of murine tumors [2]	inhibition of liver regeneration ([3]; 60 mg/kg every four days (q.4.d.))	inhibition of liver regeneration ([3]; single injection of 120 mg/kg on the day of hepatectomy)	effect on vascular sprouts ([4]; 50 pg/ml)	effect on vascular sprouts ([4]; 100 pg/ml)	adverse effects in patients [5]	body weight in animals ([6]; animals receiving TNP-470)	toxicity to mice at the higher doses ([6]; doses of 60 and 90 mg/kg/q.o.d., mice)	splenic weight ([6]; two reports)	T/C (mean tumor volume treated / untreated control) ([7]; 30 mg/kg TNP-equiv.)	survival ([7]; free or conjugated TNP-470, 30 mg/kg TNP-equiv.)	effect on growth / weight gain in normal development [8]	t1/2α [9]
CO[C@@H]1[C@H](OC(=O)NC(=O)CCl)CC[C@]2(CO2)[C@H]1[C@@]1(C)O[C@@H]1CC=C(C)C [TNP-470, O-(chloracetyl-carbamoyl) fumagillol]	did	up to 100%	up to 100%	up to 91%	did not inhibit liver regeneration	did not inhibit liver regeneration	reduced the number and length of vascular sprouts	completely prevented outgrowth	neurotoxicity (malaise, rare seizures, asthenia, anxiety and dysphoria)	weight loss or failure to gain weight	known to be toxic	decrease in splenic weight	0.34	increased survival	inhibited growth, by inhibiting weight gain	
COc1cccc2c1C(=O)c1c(O)c3c(c(O)c1C2=O)C[C@@](O)(C(=O)CO)C[C@@H]3O[C@H]1C[C@H](N)[C@H](O)[C@H](C)O1 [doxorubicin]																few minutes
